Results reported in PubChem BioAssay (NCI).
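Where inhibition never reached the appropriate level, the endpoint shown equals the highest concentration tested. Otherwise, values were interpolated linearly from a five-concentration, 48-hour dose response in 96-well plates. The concentration for full growth arrest is given as TGI.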

Key:
Assay in all cases: DTP human tumour cell line panel, 48 h
[1] = system: BT-549 breast
[2] = system: EKVX NSCLC
[3] = system: HCT-15 colon
[4] = system: HL-60(TB) leukemia
[5] = system: HS 578T breast
[6] = system: HT29 colon
[7] = system: IGROV1 ovarian
[8] = system: KM12 colon
[9] = system: LOX IMVI melanoma
[10] = system: NCI-H23 lung
[11] = system: PC-3 prostate
[12] = system: SF-268 CNS
[13] = system: SK-MEL-28 melanoma
[14] = system: U251 CNS
[15] = system: UACC-257 melanoma
[16] = system: UO-31 renal

| Structure (SMILES) | TGI [1] [µM] | TGI [2] [µM] | TGI [3] [µM] | TGI [4] [µM] | TGI [5] [µM] | TGI [6] [µM] | TGI [7] [µM] | TGI [8] [µM] | TGI [9] [µM] | TGI [10] [µM] | TGI [11] [µM] | TGI [12] [µM] | TGI [13] [µM] | TGI [14] [µM] | TGI [15] [µM] | TGI [16] [µM] |
| --- | --- | --- | --- | --- | --- | --- | --- | --- | --- | --- | --- | --- | --- | --- | --- | --- |
| O=C1NC(=O)C(F)(n2cc(F)c(=O)[nH]c2=O)C(O)N1 (centres undefined) | > 10 | > 10 | > 10 | > 10 | > 10 | > 10 | > 10 | > 10 | > 10 | > 10 | > 10 | > 10 | > 10 | > 10 | > 10 | > 10 |
| Cc1cc2c(c(C=Nc3ccccc3O)c1)OC1(C=C2)Oc2ccccc2C(=O)N1C (centres undefined) | 47.8 | 40.5 | 30.9 | > 100 | 55.3 | 30.2 | 58.5 | 41.3 | 25.4 | 34.6 | 48.7 | 36.3 | 47.5 | 41 | 30.8 | 31.4 |
| CC(C)OC(=O)c1ccc(CCC2=CC(=O)C=CC2=O)cc1 | 19.7 | 23.8 | 25.1 | 7.56 | 50 | 33.1 | 27.5 | 27 | 14.2 | 31.3 | 26.1 | 28.6 | 32.9 | 37.8 | 25.6 | 14.2 |
| O=C1CSC(/C=C/c2ccccc2)N1c1nc2cc3sc(N4C(=O)CSC4/C=C/c4ccccc4)nc3cc2s1 (centres undefined) | > 100 | > 80.9 | > 100 | > 100 | > 100 | > 67 | > 100 | > 100 | > 100 | > 100 | > 100 | > 100 | > 100 | > 100 | > 100 | > 100 |
| CCCCNC(=O)c1cc2c(cc1Cl)Sc1nccn1S2(=O)=O | > 100 | > 100 | > 100 | > 100 | > 100 | > 100 | > 100 | > 100 | > 100 | > 100 | > 100 | > 100 | > 100 | > 100 | > 100 | > 100 |
| CC(=O)Nc1ccc(NCC(=O)Nn2cnc3ccc(S(=O)(=O)Nc4ccc(NC(C)=O)cc4)cc3c2=O)cc1 | > 100 | > 100 | > 100 | > 100 | > 100 | > 100 | > 100 | > 100 | > 100 | > 100 | > 100 | > 100 | > 100 | > 100 | > 100 | > 100 |
| CC[C@H](C)[C@H]1NC(=O)[C@@H](NC(=O)[C@@H](CC(C)C)N(C)C(=O)C2CCCN2C(=O)[C@H](C)O)[C@@H](C)OC(=O)[C@H](Cc2ccc(OC)cc2)N(C)C(=O)[C@@H]2CCCN2C(=O)[C@H](CCCCNC(=O)OCc2ccccc2)NC(=O)[C@H](C)C(=O)[C@H](C(C)C)OC(=O)C[C@@H]1O (some centres undefined) | > 25 | > 25 | > 25 | > 25 | 8.35 | 16.4 | > 25 | 19.4 | > 25 | > 25 | 16.5 | > 25 | > 25 | 17.6 | > 25 | > 25 |
| O=C(O)CN1C=C(C(=O)c2cc3ccccc3n2S(=O)(=O)c2ccccc2)CCC1 | > 100 | > 100 | > 100 | 71.5 | > 100 | > 100 | > 100 | > 100 | > 100 | > 100 | > 100 | > 100 | > 100 | > 100 | > 100 | > 100 |
| CCOc1cc(C2SCC(=O)N2c2ccc(Oc3ccc(Cl)cc3)c(Cl)c2)ccc1O (centres undefined) | 31.5 | 33.4 | 37 | 47 | 37.1 | 31.8 | 32 | 31.8 | 38.7 | 32.3 | 33.4 | 30.9 | 38.2 | 35.7 | 33.3 | 21.7 |
| O=c1[nH]c(Cc2ccccc2)nc2c1sc1nc3ccccc3n12 | > 100 | > 100 | > 100 | > 100 | > 100 | > 100 | > 100 | > 100 | > 100 | > 100 | > 100 | > 100 | > 100 | > 100 | > 100 | > 100 |
| CC#CC(O)(C(=O)OCCCN(C)C)C1CCCCC1 (centres undefined) | > 100 | > 100 | > 100 | > 100 | > 100 | > 100 | > 100 | > 100 | > 100 | > 100 | > 100 | > 100 | > 100 | > 100 | > 100 | > 100 |
| CCCCCCCCCCCCCCCCCc1cccc(OCOCCOC)c1C(=O)O | 31.6 | 38.7 | 41.2 | 50.8 | 42.6 | 35.7 | 33.5 | 34.1 | 61.8 | 30.1 | 34.4 | 34.5 | 38.2 | 41.6 | 36.6 | 31.7 |
| N=C1OC(CN2CCN(c3ccccc3)CC2)CN1C(=S)Nc1ccccc1 (centres undefined) | > 100 | > 100 | > 100 | > 100 | > 100 | > 100 | > 100 | > 100 | 72.7 | > 100 | > 100 | > 100 | > 100 | > 100 | > 100 | > 100 |
| c1ccc2c(Cc3[nH]c4ccccc4c3Cc3c[nH]c4ccccc34)c[nH]c2c1 | 19.5 | 11.4 | 10.5 | 4.58 | 5.54 | 6.07 | 13.7 | 4.84 | 5.57 | 7.49 | 8.37 | 4.86 | 23.9 | 9.78 | 8.47 | 11.1 |
